In patent US20090306133A1, “New Acetyl Coenzyme A Carboxylase (ACC) Inhibitors And Uses In Treatments Of Obesity And Diabetes Mellitus - 087” (ASTRAZENECA AB, priority 2007, published 2009) one finds IC50 data, which are given here for 2 molecules.

Experiment [1] concerns the target Human recombinant Acetyl-CoA Carboxylase 2 (ACC2) (Homo sapiens, UniProt O00763). The experiment can be described thus: Assay X: ACC2 inhibition, inorganic phosphate (malachite green). The following applies: Assay X: 37° C., 1.5 h, 5 min pre-incubation. The experiment is classed as biochemical. In outline:
(§1)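 Human recombinant enzyme pre-incubated 5 min with compound before substrate addition; reaction run 1.5 h, then inorganic phosphate detected by malachite green absorbance at 660 nm. Ten concentrations tested in triplicate; apparent IC50 from four-parameter curve fit.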

For experiment [2], the target named is Human recombinant Acetyl-CoA Carboxylase 1 (ACC1) (Homo sapiens, UniProt Q13085). Kind of experiment: Assay X: ACC1 inhibition, inorganic phosphate (malachite green). The following applies: Assay X: 37° C., 1.5 h, 5 min pre-incubation. The experiment is classed as biochemical. Put shortly:
as §1

Sequence of Human recombinant Acetyl-CoA Carboxylase 2 (ACC2) (O00763 whole entry): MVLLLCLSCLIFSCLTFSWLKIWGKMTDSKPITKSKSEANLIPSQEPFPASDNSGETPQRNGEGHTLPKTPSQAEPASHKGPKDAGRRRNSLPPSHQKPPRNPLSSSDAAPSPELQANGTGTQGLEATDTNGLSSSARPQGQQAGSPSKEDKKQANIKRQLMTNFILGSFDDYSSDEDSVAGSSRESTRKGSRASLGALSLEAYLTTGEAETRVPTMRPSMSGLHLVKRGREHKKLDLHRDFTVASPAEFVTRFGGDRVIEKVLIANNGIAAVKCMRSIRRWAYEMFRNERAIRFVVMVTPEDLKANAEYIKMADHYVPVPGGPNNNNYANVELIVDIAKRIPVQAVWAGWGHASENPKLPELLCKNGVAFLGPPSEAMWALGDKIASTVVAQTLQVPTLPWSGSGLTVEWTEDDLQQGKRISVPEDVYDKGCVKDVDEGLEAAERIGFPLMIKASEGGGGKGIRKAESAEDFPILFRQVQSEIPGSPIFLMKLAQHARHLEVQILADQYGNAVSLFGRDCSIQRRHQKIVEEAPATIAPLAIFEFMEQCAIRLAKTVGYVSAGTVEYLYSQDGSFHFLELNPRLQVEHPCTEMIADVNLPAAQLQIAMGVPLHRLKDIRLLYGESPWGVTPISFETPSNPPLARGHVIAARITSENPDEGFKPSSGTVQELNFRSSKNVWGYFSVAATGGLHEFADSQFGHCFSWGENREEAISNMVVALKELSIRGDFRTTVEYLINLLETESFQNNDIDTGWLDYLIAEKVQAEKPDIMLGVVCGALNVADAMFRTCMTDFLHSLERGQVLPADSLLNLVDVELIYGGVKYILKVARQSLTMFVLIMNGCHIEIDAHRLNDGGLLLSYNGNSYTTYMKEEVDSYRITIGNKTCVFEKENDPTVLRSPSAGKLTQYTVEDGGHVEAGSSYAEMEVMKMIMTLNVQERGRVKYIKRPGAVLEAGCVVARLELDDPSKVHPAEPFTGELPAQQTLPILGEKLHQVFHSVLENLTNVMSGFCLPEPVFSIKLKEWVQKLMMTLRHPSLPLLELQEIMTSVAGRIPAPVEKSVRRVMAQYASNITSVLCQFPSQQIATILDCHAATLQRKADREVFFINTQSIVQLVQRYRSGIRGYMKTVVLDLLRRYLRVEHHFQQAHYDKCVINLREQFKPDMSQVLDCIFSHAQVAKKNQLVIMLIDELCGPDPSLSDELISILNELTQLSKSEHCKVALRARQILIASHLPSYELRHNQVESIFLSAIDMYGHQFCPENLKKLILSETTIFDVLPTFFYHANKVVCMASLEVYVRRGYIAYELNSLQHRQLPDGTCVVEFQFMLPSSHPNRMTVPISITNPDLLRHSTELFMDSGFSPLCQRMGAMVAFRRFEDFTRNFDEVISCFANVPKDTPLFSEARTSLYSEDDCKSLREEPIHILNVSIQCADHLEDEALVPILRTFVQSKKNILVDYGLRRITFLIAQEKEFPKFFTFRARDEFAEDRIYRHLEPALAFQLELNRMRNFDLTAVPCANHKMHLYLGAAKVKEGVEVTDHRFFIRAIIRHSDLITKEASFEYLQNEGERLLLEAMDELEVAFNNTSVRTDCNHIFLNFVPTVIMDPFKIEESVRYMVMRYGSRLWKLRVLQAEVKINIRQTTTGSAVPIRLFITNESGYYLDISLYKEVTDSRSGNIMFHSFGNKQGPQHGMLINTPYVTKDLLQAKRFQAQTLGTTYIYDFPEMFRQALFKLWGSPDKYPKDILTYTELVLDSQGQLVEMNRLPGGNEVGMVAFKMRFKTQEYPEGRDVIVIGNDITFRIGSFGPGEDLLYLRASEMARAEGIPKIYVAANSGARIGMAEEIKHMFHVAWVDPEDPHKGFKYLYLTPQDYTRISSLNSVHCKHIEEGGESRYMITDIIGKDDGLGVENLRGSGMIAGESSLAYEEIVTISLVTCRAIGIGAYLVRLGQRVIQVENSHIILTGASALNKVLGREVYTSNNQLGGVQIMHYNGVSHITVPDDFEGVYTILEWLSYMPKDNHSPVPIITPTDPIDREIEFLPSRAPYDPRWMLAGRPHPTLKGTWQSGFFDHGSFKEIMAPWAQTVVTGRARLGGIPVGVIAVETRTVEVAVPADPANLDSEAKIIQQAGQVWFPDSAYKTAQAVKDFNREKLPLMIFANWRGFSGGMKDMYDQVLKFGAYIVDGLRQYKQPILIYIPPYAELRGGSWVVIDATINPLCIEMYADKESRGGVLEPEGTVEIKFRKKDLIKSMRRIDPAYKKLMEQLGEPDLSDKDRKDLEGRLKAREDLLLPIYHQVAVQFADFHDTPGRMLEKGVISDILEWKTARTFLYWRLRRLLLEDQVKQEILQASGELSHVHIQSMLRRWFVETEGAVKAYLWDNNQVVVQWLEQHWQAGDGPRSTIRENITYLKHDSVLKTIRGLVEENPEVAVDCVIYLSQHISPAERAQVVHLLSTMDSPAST

In general, IC50 refers to the concentration that inhibits the measured activity by half. For the molecule `CC(C)(C)OC(=O)NC[C@H]1CC[C@H](CNC(=O)c2cc(N3CCC(CCNCCF)CC3)nc3ccccc23)CC1` [Example 244], the IC50 in experiment [1] worked out at 150 nM; in experiment [2], 1250 nM.
The matching figures for `CN(CCF)CCC1CCN(c2cc(C(=O)NC[C@H]3CC[C@H](CNC(=O)OC(C)(C)C)CC3)c3ccccc3n2)CC1` [Example 245, tert-Butyl ({trans-4-[({[2-(4-(2-((2-fluoroethyl)(methyl)amino)ethyl}piperidin-1-yl)quinolin-4-yl]carbonyl}amino)methyl]cyclohexyl}methyl)carbamate]: 180 nM and 1400 nM.
